Results: patent US20100298141A1, “SUBSTITUTED PYRIDINE N-OXIDE HERBICIDES” (E. I. DU PONT DE NEMOURS AND COMPANY, priority 2007, published 2010)

Assays:
Goosegrass = experiment: Test C pre-/postemergence test; format: in vivo, Eleusin indica; conditions: for Plant response rating, Goosegrass: 31 g ai/ha, scale 0 to 100 (0 no effect, 100 complete control)
Procedure, shortened: (§1)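 Compounds in a non-phytotoxic solvent with surfactant applied preemergence to seeded pots and, at the same time, postemergence to plants 2–18 cm tall (1- to 4-leaf stage). Paddy tests: pots flooded to 3 cm, compound applied into the water, depth held throughout.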

Surinam grass = experiment: Test C pre-/postemergence test; format: in vivo, Brachiaria decumbens; conditions: for Plant response rating, Surinam Grass: 31 g ai/ha, scale 0 to 100 (0 no effect, 100 complete control)
Procedure, shortened: as §1

johnsongrass = experiment: Test C pre-/postemergence test; format: in vivo, Sorghum halepense; conditions: for Plant response rating, Johnsongrass: 31 g ai/ha, scale 0 to 100 (0 no effect, 100 complete control)
Procedure, shortened: as §1

Italian ryegrass = experiment: Test C pre-/postemergence test; format: in vivo, Lolium multiflorum; conditions: for Plant response rating, Ryegrass, Italian: 31 g ai/ha, scale 0 to 100 (0 no effect, 100 complete control)
Procedure, shortened: as §1

wheat = experiment: Test A pre-/postemergence greenhouse test; format: in vivo, Triticum aestivum; conditions: for Plant response rating, Wheat: 0 to 100 scale where 0 is no effect and 100 is complete control; for Wheat plant response rating: 0 to 100 scale
Procedure, shortened: (§2)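 Sowing in loam/sand; same-day pre (directed soil spray) and post (foliar, 1–2 leaf, 2–10 cm) treatment with surfactant-containing non-phytotoxic solvent formulation; ~10 days in greenhouse; eye-scored injury against untreated plants.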

crabgrass [1] = experiment: Test A pre-/postemergence greenhouse test; format: in vivo, Digitaria sanguinalis; conditions: for Plant response rating, Crabgrass, Large: 0 to 100 scale where 0 is no effect and 100 is complete control; for Crabgrass, Large plant response rating: 0 to 100 scale
Procedure, shortened: as §2

corn [2] = experiment: Test A pre-/postemergence greenhouse test; format: in vivo, Zea mays; conditions: for Plant response rating, Corn: 0 to 100 scale where 0 is no effect and 100 is complete control; for Corn plant response rating: 0 to 100 scale
Procedure, shortened: as §2

crabgrass [3] = experiment: Test C pre-/postemergence test; format: in vivo, Digitaria sanguinalis; conditions: for Plant response rating, Crabgrass, Large: 31 g ai/ha, scale 0 to 100 (0 no effect, 100 complete control)
Procedure, shortened: as §1

corn [4] = experiment: Test C pre-/postemergence test; format: in vivo, Zea mays; conditions: for Plant response rating, Corn: 31 g ai/ha, scale 0 to 100 (0 no effect, 100 complete control)
Procedure, shortened: as §1

barnyardgrass = experiment: Test A pre-/postemergence greenhouse test; format: in vivo, Echinochloa crus-galli; conditions: for Plant response rating, Barnyardgrass: 0 to 100 scale where 0 is no effect and 100 is complete control; for Barnyardgrass plant response rating: 0 to 100 scale
Procedure, shortened: as §2

eastern black nightshade = experiment: Test C pre-/postemergence test; format: in vivo, Solanum ptycanthum; conditions: for Plant response rating, Nightshade: 31 g ai/ha, scale 0 to 100 (0 no effect, 100 complete control)
Procedure, shortened: as §1

[5] = test system: common (oilseed) sunflower; experiment: Test C pre-/postemergence test; format: in vivo, Helianthus annuus; conditions: for Plant response rating, Sunflower: 31 g ai/ha, scale 0 to 100 (0 no effect, 100 complete control)
Procedure, shortened: as §1

giant foxtail = experiment: Test C pre-/postemergence test; format: in vivo, Setaria faberii; conditions: for Plant response rating, Foxtail, Giant: 31 g ai/ha, scale 0 to 100 (0 no effect, 100 complete control)
Procedure, shortened: as §1

morningglory = experiment: Test C pre-/postemergence test; format: in vivo, Ipomoea coccinea; conditions: for Plant response rating, Morningglory: 31 g ai/ha, scale 0 to 100 (0 no effect, 100 complete control)
Procedure, shortened: as §1

pigweed = experiment: Test C pre-/postemergence test; format: in vivo, Amaranthus retroflexus; conditions: for Plant response rating, Pigweed: 31 g ai/ha, scale 0 to 100 (0 no effect, 100 complete control)
Procedure, shortened: as §1

velvetleaf = experiment: Test C pre-/postemergence test; format: in vivo, Abutilon theophrasti; conditions: for Plant response rating, Velvetleaf: 31 g ai/ha, scale 0 to 100 (0 no effect, 100 complete control)
Procedure, shortened: as §1

umbrella sedge = experiment: Test C flooded paddy test; format: in vivo, Cyperus difformis; conditions: Flood
Procedure, shortened: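 Pots were flooded to 3 cm above the soil surface at treatment, compound applied directly to the paddy water, and that depth held throughout. Plants were kept in a greenhouse for 13 to 15 days, then visually rated against untreated controls.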

[6] = 62 g ai/ha, Preemergence, scale 0 to 100
[7] = 125 g ai/ha, preemergence, scale 0 (no effect) to 100 (complete control)
[8] = preemergence, 250 g ai/ha, scale 0 (no effect) to 100 (complete control)
[9] = Postemergence, 500 g ai/ha, 0 is no effect, 100 is complete control
[10] = Preemergence, 125 g ai/ha, 0 no effect, 100 complete control
[11] = 250 g ai/ha, scale 0 to 100, 0 no effect, 100 complete control, 13 to 15 days

SMILES: Cc1cc([S+]([O-])Cc2c(C(F)(F)F)nn(C)c2OCC(F)(F)F)[n+]([O-])cc1Cl (stereo not drawn) [Compound 70]
- Goosegrass plant response rating (Goosegrass; [6]): 100
- Goosegrass plant response rating (Goosegrass; [7]): 100
- Plant response rating, Goosegrass (Goosegrass; Preemergence): 100
- Goosegrass plant response rating (Goosegrass; [8]): 100
- Surinam Grass plant response rating (Surinam grass; [6]): 85
- Surinam Grass plant response rating (Surinam grass; [7]): 90
- Plant response rating, Surinam Grass (Surinam grass; Preemergence): 65
- Surinam Grass plant response rating (Surinam grass; [8]): 100
- Johnsongrass plant response rating (johnsongrass; [6]): 100
- Johnsongrass plant response rating (johnsongrass; [7]): 100
- Plant response rating, Johnsongrass (johnsongrass; Preemergence): 70
- Johnsongrass plant response rating (johnsongrass; [8]): 100
- Ryegrass, Italian plant response rating (Italian ryegrass; [6]): 85
- Ryegrass, Italian plant response rating (Italian ryegrass; [7]): 100
- Plant response rating, Ryegrass, Italian (Italian ryegrass; Preemergence): 85
- Ryegrass, Italian plant response rating (Italian ryegrass; [8]): 100
- Plant response rating, Wheat (wheat; Postemergence, 125 g ai/ha): 70
- Wheat plant response rating (wheat; [9]): 70
- Wheat plant response rating (wheat; [10]): 50
- Plant response rating, Wheat (wheat; Preemergence, 500 g ai/ha): 90
- Plant response rating, Crabgrass, Large (crabgrass [1]; Postemergence, 125 g ai/ha): 50
- Crabgrass, Large plant response rating (crabgrass [1]; [9]): 80
- Crabgrass, Large plant response rating (crabgrass [1]; [10]): 90
- Plant response rating, Crabgrass, Large (crabgrass [1]; Preemergence, 500 g ai/ha): 100
- Plant response rating, Corn (corn [2]; Postemergence, 125 g ai/ha): 50
- Corn plant response rating (corn [2]; [9]): 80
- Corn plant response rating (corn [2]; [10]): 20
- Plant response rating, Corn (corn [2]; Preemergence, 500 g ai/ha): 90
- Crabgrass, Large plant response rating (crabgrass [3]; [6]): 100
- Crabgrass, Large plant response rating (crabgrass [3]; [7]): 100
- Plant response rating, Crabgrass, Large (crabgrass [3]; Preemergence): 85
- Crabgrass, Large plant response rating (crabgrass [3]; [8]): 100
- Corn plant response rating (corn [4]; [6]): 95
- Corn plant response rating (corn [4]; [7]): 98
- Plant response rating, Corn (corn [4]; Preemergence): 50
- Corn plant response rating (corn [4]; [8]): 100
- Plant response rating, Barnyardgrass (barnyardgrass; Postemergence, 125 g ai/ha): 70
- Barnyardgrass plant response rating (barnyardgrass; [9]): 90
- Barnyardgrass plant response rating (barnyardgrass; [10]): 80
- Plant response rating, Barnyardgrass (barnyardgrass; Preemergence, 500 g ai/ha): 100
- Nightshade plant response rating (eastern black nightshade; [6]): 100
- Nightshade plant response rating (eastern black nightshade; [7]): 100
- Plant response rating, Nightshade (eastern black nightshade; Preemergence): 100
- Nightshade plant response rating (eastern black nightshade; [8]): 100
- Sunflower plant response rating [5, 6]: 45
- Sunflower plant response rating [5, 7]: 45
- Plant response rating, Sunflower ([5]; Preemergence): 0
- Sunflower plant response rating [5, 8]: 80
- Foxtail, Giant plant response rating (giant foxtail; [6]): 100
- Plant response rating, Foxtail, Giant (giant foxtail; Preemergence): 90
- Foxtail, Giant plant response rating (giant foxtail; [8]): 100
- Morningglory plant response rating (morningglory; [6]): 80
- Morningglory plant response rating (morningglory; [7]): 100
- Plant response rating, Morningglory (morningglory; Preemergence): 0
- Morningglory plant response rating (morningglory; [8]): 100
- Pigweed plant response rating (pigweed; [6]): 100
- Pigweed plant response rating (pigweed; [7]): 100
- Plant response rating, Pigweed (pigweed; Preemergence): 100
- Pigweed plant response rating (pigweed; [8]): 100
- Velvetleaf plant response rating (velvetleaf; [6]): 85
- Velvetleaf plant response rating (velvetleaf; [7]): 100
- Plant response rating, Velvetleaf (velvetleaf; Preemergence): 35
- Velvetleaf plant response rating (velvetleaf; [8]): 100
- Plant response rating, Sedge, Umbrella (umbrella sedge; 62 g ai/ha, scale 0 to 100 (0 no effect, 100 complete control)): 80
- Plant response rating, Sedge, Umbrella (umbrella sedge; [11]): 100

SMILES: CC(c1c(C(F)(F)F)nn(CC(F)(F)F)c1Cl)[S+]([O-])c1cccc[n+]1[O-] (stereo not drawn) [Compound 46]
- Goosegrass plant response rating (Goosegrass; [6]): 100
- Goosegrass plant response rating (Goosegrass; [7]): 100
- Plant response rating, Goosegrass (Goosegrass; Preemergence): 98
- Goosegrass plant response rating (Goosegrass; [8]): 100
- Surinam Grass plant response rating (Surinam grass; [6]): 85
- Surinam Grass plant response rating (Surinam grass; [7]): 100
- Plant response rating, Surinam Grass (Surinam grass; Preemergence): 85
- Surinam Grass plant response rating (Surinam grass; [8]): 100
- Johnsongrass plant response rating (johnsongrass; [6]): 80
- Johnsongrass plant response rating (johnsongrass; [7]): 90
- Plant response rating, Johnsongrass (johnsongrass; Preemergence): 40
- Johnsongrass plant response rating (johnsongrass; [8]): 100
- Ryegrass, Italian plant response rating (Italian ryegrass; [6]): 55
- Ryegrass, Italian plant response rating (Italian ryegrass; [7]): 80
- Plant response rating, Ryegrass, Italian (Italian ryegrass; Preemergence): 0
- Ryegrass, Italian plant response rating (Italian ryegrass; [8]): 100
- Plant response rating, Wheat (wheat; Postemergence, 125 g ai/ha): 0
- Wheat plant response rating (wheat; [9]): 50
- Wheat plant response rating (wheat; [10]): 0
- Plant response rating, Wheat (wheat; Preemergence, 500 g ai/ha): 60
- Plant response rating, Crabgrass, Large (crabgrass [1]; Postemergence, 125 g ai/ha): 70
- Crabgrass, Large plant response rating (crabgrass [1]; [9]): 80
- Crabgrass, Large plant response rating (crabgrass [1]; [10]): 70
- Plant response rating, Crabgrass, Large (crabgrass [1]; Preemergence, 500 g ai/ha): 100
- Plant response rating, Corn (corn [2]; Postemergence, 125 g ai/ha): 0
- Corn plant response rating (corn [2]; [9]): 0
- Corn plant response rating (corn [2]; [10]): 0
- Plant response rating, Corn (corn [2]; Preemergence, 500 g ai/ha): 0
- Crabgrass, Large plant response rating (crabgrass [3]; [6]): 100
- Crabgrass, Large plant response rating (crabgrass [3]; [7]): 100
- Plant response rating, Crabgrass, Large (crabgrass [3]; Preemergence): 100
- Crabgrass, Large plant response rating (crabgrass [3]; [8]): 100
- Corn plant response rating (corn [4]; [6]): 0
- Corn plant response rating (corn [4]; [7]): 0
- Plant response rating, Corn (corn [4]; Preemergence): 0
- Corn plant response rating (corn [4]; [8]): 55
- Plant response rating, Barnyardgrass (barnyardgrass; Postemergence, 125 g ai/ha): 70
- Barnyardgrass plant response rating (barnyardgrass; [9]): 80
- Barnyardgrass plant response rating (barnyardgrass; [10]): 80
- Plant response rating, Barnyardgrass (barnyardgrass; Preemergence, 500 g ai/ha): 100
- Nightshade plant response rating (eastern black nightshade; [6]): 100
- Nightshade plant response rating (eastern black nightshade; [7]): 100
- Plant response rating, Nightshade (eastern black nightshade; Preemergence): 80
- Sunflower plant response rating [5, 6]: 0
- Sunflower plant response rating [5, 7]: 0
- Plant response rating, Sunflower ([5]; Preemergence): 0
- Sunflower plant response rating [5, 8]: 40
- Foxtail, Giant plant response rating (giant foxtail; [6]): 100
- Foxtail, Giant plant response rating (giant foxtail; [7]): 100
- Plant response rating, Foxtail, Giant (giant foxtail; Preemergence): 85
- Foxtail, Giant plant response rating (giant foxtail; [8]): 100
- Morningglory plant response rating (morningglory; [6]): 100
- Morningglory plant response rating (morningglory; [7]): 100
- Plant response rating, Morningglory (morningglory; Preemergence): 100
- Morningglory plant response rating (morningglory; [8]): 100
- Pigweed plant response rating (pigweed; [6]): 90
- Pigweed plant response rating (pigweed; [7]): 100
- Plant response rating, Pigweed (pigweed; Preemergence): 0
- Pigweed plant response rating (pigweed; [8]): 100
- Velvetleaf plant response rating (velvetleaf; [6]): 0
- Velvetleaf plant response rating (velvetleaf; [7]): 0
- Plant response rating, Velvetleaf (velvetleaf; Preemergence): 0
- Velvetleaf plant response rating (velvetleaf; [8]): 60
- Plant response rating, Sedge, Umbrella (umbrella sedge; [11]): 70
